Test results from PubChem BioAssay (NCI).
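Values below derive from 48-hour exposures of cells grown in 96-well plates, with endpoints linearly interpolated between the two concentrations bracketing the appropriate inhibition level. Here, GI50 denotes the concentration required for 50% inhibition of growth. TGI marks complete inhibition of growth.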

Legend:
Test in all cases: inhibition of tumour cell growth, NCI panel, 48 h; in the data active = GI50 below about 0.43 µM; inactive = the rest
786-0 renal = tested on: 786-0 renal
A498 renal = tested on: A498 renal
A549 NSCLC = tested on: A549 NSCLC
ACHN renal = tested on: ACHN renal
CAKI-1 renal = tested on: CAKI-1 renal
CCRF-CEM leukemia = tested on: CCRF-CEM leukemia
COLO 205 colon = tested on: COLO 205 colon
DU-145 prostate = tested on: DU-145 prostate
EKVX NSCLC = tested on: EKVX NSCLC
HCC-2998 colon = tested on: HCC-2998 colon
HCT-116 colon = tested on: HCT-116 colon
HCT-15 colon = tested on: HCT-15 colon
HL-60(TB) leukemia = tested on: HL-60(TB) leukemia
HOP-62 NSCLC = tested on: HOP-62 NSCLC
HOP-92 NSCLC = tested on: HOP-92 NSCLC
HS 578T breast = tested on: HS 578T breast
HT29 colon = tested on: HT29 colon
IGROV1 ovarian = tested on: IGROV1 ovarian
K-562 leukemia = tested on: K-562 leukemia
KM12 colon = tested on: KM12 colon
LOX IMVI melanoma = tested on: LOX IMVI melanoma
M14 melanoma = tested on: M14 melanoma
MALME-3M melanoma = tested on: MALME-3M melanoma
MCF7 breast = tested on: MCF7 breast
MDA-MB-231 breast = tested on: MDA-MB-231 breast
MDA-MB-435 = tested on: MDA-MB-435
MDA-N = tested on: MDA-N
MOLT-4 leukemia = tested on: MOLT-4 leukemia
NCI-H226 lung = tested on: NCI-H226 lung
NCI-H23 lung = tested on: NCI-H23 lung
NCI-H460 lung = tested on: NCI-H460 lung
NCI/ADR-RES ovarian = tested on: NCI/ADR-RES ovarian
OVCAR-3 ovarian = tested on: OVCAR-3 ovarian
OVCAR-4 ovarian = tested on: OVCAR-4 ovarian
OVCAR-5 ovarian = tested on: OVCAR-5 ovarian
OVCAR-8 ovarian = tested on: OVCAR-8 ovarian
PC-3 prostate = tested on: PC-3 prostate
RPMI-8226 leukemia = tested on: RPMI-8226 leukemia
RXF 393 renal = tested on: RXF 393 renal
SF-268 CNS = tested on: SF-268 CNS
SF-295 CNS = tested on: SF-295 CNS
SF-539 CNS = tested on: SF-539 CNS
SK-MEL-28 melanoma = tested on: SK-MEL-28 melanoma
SK-MEL-5 melanoma = tested on: SK-MEL-5 melanoma
SK-OV-3 ovarian = tested on: SK-OV-3 ovarian
SN12C renal = tested on: SN12C renal
SNB-19 CNS = tested on: SNB-19 CNS
SNB-75 CNS = tested on: SNB-75 CNS
SR leukemia = tested on: SR leukemia
SW-620 colon = tested on: SW-620 colon
T-47D breast = tested on: T-47D breast
TK-10 renal = tested on: TK-10 renal
U251 CNS = tested on: U251 CNS
UACC-257 melanoma = tested on: UACC-257 melanoma
UACC-62 melanoma = tested on: UACC-62 melanoma
BT-549 breast = tested on: BT-549 breast
NCI-H522 lung = tested on: NCI-H522 lung
SK-MEL-2 melanoma = tested on: SK-MEL-2 melanoma
UO-31 renal = tested on: UO-31 renal

CSCC[C@H](NC(=O)[C@H](CC(C)C)NC(=O)[C@@H](Cc1ccccc1)NC(=O)CNC(=O)[C@@H](NC(=O)[C@H](C)NC(=O)[C@H](Cc1c[nH]c2ccccc12)NC(=O)[C@H](CCC(N)=O)NC(=O)[C@H](N)CC(N)=O)C(C)C)C(N)=O
> 12.5 µM: TGI (786-0 renal) | TGI (A498 renal) | TGI (A549 NSCLC) | TGI (ACHN renal) | TGI (CAKI-1 renal) | TGI (CCRF-CEM leukemia) | TGI (COLO 205 colon) | TGI (DU-145 prostate) | TGI (EKVX NSCLC) | TGI (HCC-2998 colon) | TGI (HCT-116 colon) | TGI (HCT-15 colon) | TGI (HL-60(TB) leukemia) | TGI (HOP-62 NSCLC) | TGI (HOP-92 NSCLC) | TGI (HS 578T breast) | TGI (HT29 colon) | TGI (IGROV1 ovarian) | TGI (K-562 leukemia) | TGI (KM12 colon) | TGI (LOX IMVI melanoma) | TGI (M14 melanoma) | TGI (MALME-3M melanoma) | TGI (MCF7 breast) | TGI (MDA-MB-231 breast) | TGI (MDA-MB-435) | TGI (MDA-N) | TGI (MOLT-4 leukemia) | TGI (NCI-H226 lung) | TGI (NCI-H23 lung) | TGI (NCI-H460 lung) | TGI (NCI/ADR-RES ovarian) | TGI (OVCAR-3 ovarian) | TGI (OVCAR-4 ovarian) | TGI (OVCAR-5 ovarian) | TGI (OVCAR-8 ovarian) | TGI (PC-3 prostate) | TGI (RPMI-8226 leukemia) | TGI (RXF 393 renal) | TGI (SF-268 CNS) | TGI (SF-295 CNS) | TGI (SF-539 CNS) | TGI (SK-MEL-28 melanoma) | TGI (SK-MEL-5 melanoma) | TGI (SK-OV-3 ovarian) | TGI (SN12C renal) | TGI (SNB-19 CNS) | TGI (SNB-75 CNS) | TGI (SW-620 colon) | TGI (T-47D breast) | TGI (TK-10 renal) | TGI (U251 CNS) | TGI (UACC-257 melanoma) | TGI (UACC-62 melanoma)
10.7 µM: TGI (SR leukemia)

CCOP(=O)(Nc1ccccc1P(=O)(OCC)OCC)OCC
> 100 µM: TGI (786-0 renal) | TGI (A498 renal) | TGI (A549 NSCLC) | TGI (ACHN renal) | TGI (BT-549 breast) | TGI (CAKI-1 renal) | TGI (COLO 205 colon) | TGI (DU-145 prostate) | TGI (EKVX NSCLC) | TGI (HCC-2998 colon) | TGI (HCT-116 colon) | TGI (HCT-15 colon) | TGI (HOP-62 NSCLC) | TGI (HOP-92 NSCLC) | TGI (HS 578T breast) | TGI (HT29 colon) | TGI (IGROV1 ovarian) | TGI (K-562 leukemia) | TGI (KM12 colon) | TGI (M14 melanoma) | TGI (MALME-3M melanoma) | TGI (MCF7 breast) | TGI (MDA-MB-231 breast) | TGI (MDA-MB-435) | TGI (MDA-N) | TGI (MOLT-4 leukemia) | TGI (NCI-H23 lung) | TGI (NCI-H460 lung) | TGI (NCI-H522 lung) | TGI (NCI/ADR-RES ovarian) | TGI (OVCAR-3 ovarian) | TGI (OVCAR-4 ovarian) | TGI (OVCAR-5 ovarian) | TGI (OVCAR-8 ovarian) | TGI (PC-3 prostate) | TGI (RPMI-8226 leukemia) | TGI (RXF 393 renal) | TGI (SF-268 CNS) | TGI (SF-295 CNS) | TGI (SK-MEL-2 melanoma) | TGI (SK-MEL-28 melanoma) | TGI (SK-MEL-5 melanoma) | TGI (SK-OV-3 ovarian) | TGI (SNB-19 CNS) | TGI (SNB-75 CNS) | TGI (SW-620 colon) | TGI (TK-10 renal) | TGI (U251 CNS) | TGI (UACC-257 melanoma) | TGI (UACC-62 melanoma) | TGI (UO-31 renal)

c1ccc(Nc2nc(-c3ccccn3)cs2)nc1
30.4 µM: TGI (SK-MEL-2 melanoma)
3.01 µM: TGI (HL-60(TB) leukemia)
> 32.7 µM: TGI (NCI-H23 lung)
> 57.2 µM: TGI (K-562 leukemia)
> 88.7 µM: TGI (SF-539 CNS)
76.2 µM: TGI (RPMI-8226 leukemia)
> 56.9 µM: TGI (EKVX NSCLC)
5.16 µM: TGI (MALME-3M melanoma)
2.12 µM: TGI (CAKI-1 renal)
19.6 µM: TGI (OVCAR-3 ovarian)
active: GI50 (786-0 renal) 0.344 µM | GI50 (A498 renal) 0.266 µM | GI50 (ACHN renal) 0.341 µM | GI50 (CAKI-1 renal) 0.0992 µM | GI50 (CCRF-CEM leukemia) 0.259 µM | GI50 (COLO 205 colon) 0.411 µM | GI50 (HCT-116 colon) 0.326 µM | GI50 (HCT-15 colon) 0.172 µM | GI50 (HL-60(TB) leukemia) 0.392 µM | GI50 (K-562 leukemia) 0.413 µM | GI50 (KM12 colon) 0.381 µM | GI50 (LOX IMVI melanoma) 0.255 µM | GI50 (M14 melanoma) 0.258 µM | GI50 (MALME-3M melanoma) 0.156 µM | GI50 (MOLT-4 leukemia) 0.301 µM | GI50 (NCI-H460 lung) 0.29 µM | GI50 (NCI-H522 lung) 0.253 µM | GI50 (NCI/ADR-RES ovarian) 0.103 µM | GI50 (OVCAR-3 ovarian) 0.273 µM | GI50 (OVCAR-8 ovarian) 0.395 µM | GI50 (SF-268 CNS) 0.346 µM | GI50 (SF-295 CNS) 0.297 µM | GI50 (SK-MEL-5 melanoma) 0.355 µM | GI50 (SR leukemia) 0.308 µM | GI50 (U251 CNS) 0.332 µM | GI50 (UO-31 renal) 0.0737 µM
15.4 µM: TGI (UACC-257 melanoma)
> 26 µM: TGI (BT-549 breast)
21.1 µM: TGI (HT29 colon)
2.89 µM: TGI (NCI/ADR-RES ovarian)
15.9 µM: TGI (KM12 colon)
24.7 µM: TGI (HCC-2998 colon)
> 43.2 µM: TGI (U251 CNS)
6.61 µM: TGI (SF-295 CNS)
15.1 µM: TGI (NCI-H522 lung)
> 89.2 µM: TGI (HCT-15 colon)
> 35 µM: TGI (A549 NSCLC)
> 43 µM: TGI (UACC-62 melanoma)
> 100 µM: TGI (ACHN renal) | TGI (DU-145 prostate) | TGI (HOP-62 NSCLC) | TGI (HS 578T breast) | TGI (MCF7 breast) | TGI (MDA-MB-231 breast) | TGI (OVCAR-4 ovarian) | TGI (OVCAR-5 ovarian) | TGI (RXF 393 renal) | TGI (SK-MEL-28 melanoma) | TGI (SK-OV-3 ovarian) | TGI (SN12C renal) | TGI (SNB-19 CNS) | TGI (SNB-75 CNS) | TGI (T-47D breast) | TGI (TK-10 renal)
6.17 µM: TGI (SK-MEL-5 melanoma)
13.5 µM: TGI (A498 renal)
2.61 µM: TGI (NCI-H460 lung)
> 27.2 µM: TGI (MOLT-4 leukemia)
6.67 µM: TGI (LOX IMVI melanoma)
> 38.5 µM: TGI (OVCAR-8 ovarian)
> 29.6 µM: TGI (CCRF-CEM leukemia)
> 63.1 µM: TGI (NCI-H226 lung)
19.9 µM: TGI (SW-620 colon)
5.8 µM: TGI (IGROV1 ovarian)
> 38.2 µM: TGI (786-0 renal)
21.6 µM: TGI (HCT-116 colon)
> 89.9 µM: TGI (PC-3 prostate)
> 45.5 µM: TGI (SF-268 CNS)
inactive: GI50 (A549 NSCLC) 0.623 µM | GI50 (BT-549 breast) 0.713 µM | GI50 (DU-145 prostate) 0.65 µM | GI50 (EKVX NSCLC) 0.507 µM | GI50 (HCC-2998 colon) 0.516 µM | GI50 (HOP-62 NSCLC) 0.619 µM | GI50 (HOP-92 NSCLC) 2.49 µM | GI50 (HS 578T breast) 2.91 µM | GI50 (HT29 colon) 0.603 µM | GI50 (IGROV1 ovarian) 0.464 µM | GI50 (MCF7 breast) 0.508 µM | GI50 (MDA-MB-231 breast) 0.934 µM | GI50 (MDA-MB-435) 0.689 µM | GI50 (NCI-H226 lung) 1 µM | GI50 (NCI-H23 lung) 0.972 µM | GI50 (OVCAR-4 ovarian) 0.593 µM | GI50 (OVCAR-5 ovarian) 2.35 µM | GI50 (PC-3 prostate) 0.568 µM | GI50 (RPMI-8226 leukemia) 0.548 µM | GI50 (RXF 393 renal) 1.98 µM | GI50 (SF-539 CNS) 0.825 µM | GI50 (SK-MEL-2 melanoma) 0.442 µM | GI50 (SK-MEL-28 melanoma) 1.5 µM | GI50 (SK-OV-3 ovarian) 0.74 µM | GI50 (SN12C renal) 0.873 µM | GI50 (SNB-19 CNS) 0.997 µM | GI50 (SNB-75 CNS) 3.03 µM | GI50 (SW-620 colon) 0.61 µM | GI50 (T-47D breast) 0.698 µM | GI50 (TK-10 renal) 0.573 µM | GI50 (UACC-257 melanoma) 0.496 µM | GI50 (UACC-62 melanoma) 0.48 µM
0.711 µM: TGI (UO-31 renal)
> 53.5 µM: TGI (MDA-MB-435)
7.95 µM: TGI (SR leukemia)
17.5 µM: TGI (COLO 205 colon)
> 56.5 µM: TGI (HOP-92 NSCLC)
